According to ChEMBL document CHEMBL1201862, “PubChem BioAssay data set” (2004):
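Dose response: 5 concentrations. Exposure: 48 h. Format: 96-well plates. Endpoint: linear interpolation; highest concentration if not reached. The concentration for 50% growth inhibition is given as GI50.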 Calls of active or inactive are those of the source. No stated cut-off is given here; in the data, active = GI50 up to about 1.1 µM and inactive = higher.

Columns and labels:
Assay in all cases: NCI tumour cell line growth inhibition, 48 h
786-0 = tested on: 786-0
A498 = tested on: A498
A549 = tested on: A549
ACHN = tested on: ACHN
CAKI-1 = tested on: CAKI-1
CCRF-CEM = tested on: CCRF-CEM
COLO 205 = tested on: COLO 205
DLD-1 = tested on: DLD-1
DMS-114 = tested on: DMS-114
DMS-273 = tested on: DMS-273
EKVX = tested on: EKVX
HCC 2998 = tested on: HCC 2998
HCT-116 = tested on: HCT-116
HCT-15 = tested on: HCT-15
HL-60 = tested on: HL-60
HOP-62 = tested on: HOP-62
HOP-92 = tested on: HOP-92
HT-29 = tested on: HT-29
IGROV-1 = tested on: IGROV-1
K562 = tested on: K562
KM-20L2 = tested on: KM-20L2
KM12 = tested on: KM12
LOX IMVI = tested on: LOX IMVI
LXFL 529 = tested on: LXFL 529
M14 = tested on: M14
M19-MEL = tested on: M19-MEL
MOLT-4 = tested on: MOLT-4
Malme-3M = tested on: Malme-3M
NCI-H226 = tested on: NCI-H226
NCI-H23 = tested on: NCI-H23
NCI-H460 = tested on: NCI-H460
NCI-H522 = tested on: NCI-H522
OVCAR-3 = tested on: OVCAR-3
OVCAR-4 = tested on: OVCAR-4
OVCAR-5 = tested on: OVCAR-5
OVCAR-8 = tested on: OVCAR-8
RPMI-8226 = tested on: RPMI-8226
RXF 393 = tested on: RXF 393
RXF 631 = tested on: RXF 631
SF-295 = tested on: SF-295
SF-539 = tested on: SF-539
SK-MEL-28 = tested on: SK-MEL-28
SK-MEL-2 = tested on: SK-MEL-2
SK-MEL-5 = tested on: SK-MEL-5
SK-OV-3 = tested on: SK-OV-3
SN12C = tested on: SN12C
SNB-19 = tested on: SNB-19
SNB-75 = tested on: SNB-75
SNB-78 = tested on: SNB-78
SR = tested on: SR
SW-620 = tested on: SW-620
TK-10 = tested on: TK-10
U-251 = tested on: U-251
UACC-257 = tested on: UACC-257
UACC-62 = tested on: UACC-62
UO-31 = tested on: UO-31
XF498 = tested on: XF498
SF-268 = tested on: SF-268
HOP-18 = tested on: HOP-18

CN(N=O)C(=O)NC(CCCCNC(=O)OCc1ccccc1)C(=O)OCc1ccccc1 (centres undefined)
GI50 (786-0): 17.5 µM (inactive)
GI50 (A498): 55.5 µM (inactive)
GI50 (A549): 83 µM (inactive)
GI50 (ACHN): 17.7 µM (inactive)
GI50 (CAKI-1): 21.4 µM (inactive)
GI50 (CCRF-CEM): 25 µM (inactive)
GI50 (COLO 205): 23.7 µM (inactive)
GI50 (DLD-1): 33.8 µM (inactive)
GI50 (DMS-114): 29 µM (inactive)
GI50 (DMS-273): 33.2 µM (inactive)
GI50 (EKVX): > 100 µM (inactive)
GI50 (HCC 2998): 23.4 µM (inactive)
GI50 (HCT-116): 56.8 µM (inactive)
GI50 (HCT-15): 36 µM
GI50 (HL-60): 25.2 µM (inactive)
GI50 (HOP-62): 28.5 µM (inactive)
GI50 (HOP-92): 18.5 µM (inactive)
GI50 (HT-29): 66.4 µM (inactive)
GI50 (IGROV-1): > 100 µM (inactive)
GI50 (K562): 48.8 µM (inactive)
GI50 (KM-20L2): > 100 µM (inactive)
GI50 (KM12): 48.2 µM (inactive)
GI50 (LOX IMVI): 17.4 µM (inactive)
GI50 (LXFL 529): 28.5 µM (inactive)
GI50 (M14): 19.3 µM (inactive)
GI50 (M19-MEL): 27.1 µM (inactive)
GI50 (MOLT-4): 26.6 µM (inactive)
GI50 (Malme-3M): 30.5 µM (inactive)
GI50 (NCI-H226): 42.9 µM (inactive)
GI50 (NCI-H23): 20.7 µM (inactive)
GI50 (NCI-H460): 43.9 µM (inactive)
GI50 (NCI-H522): 13.1 µM (inactive)
GI50 (OVCAR-3): 25.3 µM (inactive)
GI50 (OVCAR-4): 71.1 µM (inactive)
GI50 (OVCAR-5): > 100 µM (inactive)
GI50 (OVCAR-8): 19.2 µM (inactive)
GI50 (RPMI-8226): 33.5 µM (inactive)
GI50 (RXF 393): 33.7 µM (inactive)
GI50 (RXF 631): 19.9 µM (inactive)
GI50 (SF-295): 32.4 µM (inactive)
GI50 (SF-539): 17.4 µM (inactive)
GI50 (SK-MEL-28): 25 µM (inactive)
GI50 (SK-MEL-2): 30.1 µM (inactive)
GI50 (SK-MEL-5): 20.4 µM (inactive)
GI50 (SK-OV-3): > 100 µM (inactive)
GI50 (SN12C): 17.6 µM (inactive)
GI50 (SNB-19): > 100 µM (inactive)
GI50 (SNB-75): 18.8 µM (inactive)
GI50 (SNB-78): 26.7 µM (inactive)
GI50 (SR): 14.9 µM (inactive)
GI50 (SW-620): 27.6 µM (inactive)
GI50 (TK-10): 33.4 µM (inactive)
GI50 (U-251): 53.3 µM (inactive)
GI50 (UACC-257): 16.5 µM (inactive)
GI50 (UACC-62): 13.7 µM (inactive)
GI50 (UO-31): 20.2 µM (inactive)
GI50 (XF498): 13.2 µM (inactive)

COc1ccc(/N=N/C(C(=O)c2ccccc2)C(=O)c2ccccc2)cc1
GI50 (786-0): 19.9 µM (inactive)
GI50 (A498): 35.7 µM (inactive)
GI50 (A549): 21.3 µM (inactive)
GI50 (ACHN): 24.7 µM (inactive)
GI50 (CAKI-1): 32.5 µM (inactive)
GI50 (CCRF-CEM): 8 µM (inactive)
GI50 (COLO 205): 42.1 µM (inactive)
GI50 (DLD-1): 23.9 µM (inactive)
GI50 (DMS-114): 19.4 µM (inactive)
GI50 (DMS-273): 16.1 µM (inactive)
GI50 (EKVX): 21.3 µM (inactive)
GI50 (HCC 2998): 44.7 µM (inactive)
GI50 (HCT-116): 13.6 µM (inactive)
GI50 (HCT-15): 15.1 µM
GI50 (HL-60): 10.4 µM (inactive)
GI50 (HOP-62): 23.3 µM (inactive)
GI50 (HT-29): 23 µM (inactive)
GI50 (IGROV-1): 34.7 µM (inactive)
GI50 (K562): 19.1 µM (inactive)
GI50 (KM-20L2): 27.2 µM (inactive)
GI50 (KM12): 27 µM (inactive)
GI50 (LOX IMVI): 17.8 µM (inactive)
GI50 (LXFL 529): 24.8 µM (inactive)
GI50 (M14): 15.3 µM (inactive)
GI50 (MOLT-4): 14.7 µM (inactive)
GI50 (Malme-3M): 24.9 µM (inactive)
GI50 (NCI-H226): 8.67 µM (inactive)
GI50 (NCI-H23): 18.3 µM (inactive)
GI50 (NCI-H460): 18.6 µM (inactive)
GI50 (NCI-H522): 16.2 µM (inactive)
GI50 (OVCAR-3): 17.2 µM (inactive)
GI50 (OVCAR-4): 30.8 µM (inactive)
GI50 (OVCAR-5): 33.8 µM (inactive)
GI50 (OVCAR-8): 22.4 µM (inactive)
GI50 (RPMI-8226): 13.4 µM (inactive)
GI50 (RXF 631): 31.4 µM (inactive)
GI50 (SF-268): 23.8 µM (inactive)
GI50 (SF-295): 21.3 µM (inactive)
GI50 (SF-539): 25.4 µM (inactive)
GI50 (SK-MEL-28): 26.4 µM (inactive)
GI50 (SK-MEL-2): 21.9 µM (inactive)
GI50 (SK-MEL-5): 14.1 µM (inactive)
GI50 (SK-OV-3): 45.9 µM (inactive)
GI50 (SN12C): 21 µM (inactive)
GI50 (SNB-19): 17.7 µM (inactive)
GI50 (SNB-75): 20.6 µM (inactive)
GI50 (SW-620): 19.3 µM (inactive)
GI50 (TK-10): 52 µM (inactive)
GI50 (U-251): 15.7 µM (inactive)
GI50 (UACC-257): 24.5 µM (inactive)
GI50 (UACC-62): 16 µM (inactive)
GI50 (UO-31): 16.9 µM (inactive)
GI50 (XF498): 18.2 µM (inactive)

C/C(=N\NC(N)=S)c1ccc(/C(C)=N/NC(N)=S)cc1
GI50 (786-0): > 100 µM (inactive)
GI50 (A498): > 100 µM (inactive)
GI50 (A549): > 100 µM (inactive)
GI50 (ACHN): > 100 µM (inactive)
GI50 (CCRF-CEM): > 100 µM (inactive)
GI50 (COLO 205): > 100 µM (inactive)
GI50 (DLD-1): > 100 µM (inactive)
GI50 (DMS-114): > 100 µM (inactive)
GI50 (EKVX): > 100 µM (inactive)
GI50 (HCC 2998): > 100 µM (inactive)
GI50 (HCT-116): > 100 µM (inactive)
GI50 (HCT-15): > 100 µM
GI50 (HL-60): > 100 µM (inactive)
GI50 (HOP-18): > 100 µM (inactive)
GI50 (HOP-62): > 100 µM (inactive)
GI50 (HOP-92): > 100 µM (inactive)
GI50 (HT-29): > 100 µM (inactive)
GI50 (IGROV-1): > 100 µM (inactive)
GI50 (K562): > 100 µM (inactive)
GI50 (KM-20L2): > 100 µM (inactive)
GI50 (KM12): > 100 µM (inactive)
GI50 (LOX IMVI): > 100 µM (inactive)
GI50 (LXFL 529): > 100 µM (inactive)
GI50 (M14): > 100 µM (inactive)
GI50 (M19-MEL): > 100 µM (inactive)
GI50 (MOLT-4): > 100 µM (inactive)
GI50 (Malme-3M): > 100 µM (inactive)
GI50 (NCI-H226): > 100 µM (inactive)
GI50 (NCI-H23): > 100 µM (inactive)
GI50 (NCI-H460): > 100 µM (inactive)
GI50 (NCI-H522): > 100 µM (inactive)
GI50 (OVCAR-3): > 100 µM (inactive)
GI50 (OVCAR-5): > 100 µM (inactive)
GI50 (OVCAR-8): > 100 µM (inactive)
GI50 (RPMI-8226): > 100 µM (inactive)
GI50 (RXF 393): > 100 µM (inactive)
GI50 (RXF 631): > 100 µM (inactive)
GI50 (SF-268): > 100 µM (inactive)
GI50 (SF-295): > 100 µM (inactive)
GI50 (SF-539): > 100 µM (inactive)
GI50 (SK-MEL-28): > 100 µM (inactive)
GI50 (SK-MEL-5): > 100 µM (inactive)
GI50 (SK-OV-3): > 100 µM (inactive)
GI50 (SN12C): > 100 µM (inactive)
GI50 (SNB-19): > 100 µM (inactive)
GI50 (SNB-75): > 100 µM (inactive)
GI50 (SR): > 100 µM (inactive)
GI50 (SW-620): > 100 µM (inactive)
GI50 (TK-10): > 100 µM (inactive)
GI50 (U-251): > 100 µM (inactive)
GI50 (UACC-257): > 100 µM (inactive)
GI50 (UACC-62): > 100 µM (inactive)
GI50 (UO-31): > 100 µM (inactive)
GI50 (XF498): > 100 µM (inactive)
